Assay results reported in patent US12655116B2, “Substituted isophthalic acid diamides” (Bayer Aktiengesellschaft, priority 2020, dated 2026).

What was measured:
[1] = system: ABUTH; assay: Pre-emergence herbicidal action against ABUTH; format: in vivo, Abutilon theophrasti; conditions: for Pre-emergence action against ABUTH (herbicidal activity): 80 g/ha, scored visually after 3 weeks vs untreated controls (100% = plants have died, 0% = like control plants); for Pre-emergence action against ABUTH (herbicidal activity in percent): dosage 20 g/ha, scored visually after 3 weeks vs untreated controls, 100% = plants have died, 0% = like control plants
Procedure, shortened: (§1)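 Visual rating at 3 weeks vs untreated pots; 0–100% scale, 100% = plants died. Treatment: aqueous WP/EC spray onto covering soil, 600–800 l/ha, 0.2% wetter, seeds in sandy loam.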

[2] = system: ALOMY; assay: Pre-emergence herbicidal action against ALOMY; format: in vivo, Alopecurus myosuroides; conditions: 80 g/ha, pre-emergence, scored visually after 3 weeks vs untreated controls (100% = plants have died, 0% = like control plants)
Procedure, shortened: as §1

[3] = system: AMARE; assay: Pre-emergence herbicidal action against AMARE; format: in vivo, Amaranthus retroflexus
Procedure, shortened: as §1

[4] = system: AVEFA; assay: Pre-emergence herbicidal action against AVEFA; format: in vivo, Avena fatua; conditions: 80 g/ha, pre-emergence
Procedure, shortened: as §1

[5] = system: MATIN; assay: Pre-emergence herbicidal action against MATIN; format: in vivo, Matricaria inodora
Procedure, shortened: as §1

[6] = system: POLCO; assay: Pre-emergence herbicidal action against POLCO; format: in vivo, Polygonum convolvulus
Procedure, shortened: as §1

[7] = system: SETVI; assay: Pre-emergence herbicidal action against SETVI; format: in vivo, Setaria viridis; conditions: dosage 80 g/ha
Procedure, shortened: as §1

[8] = system: STEME; assay: Pre-emergence herbicidal action against STEME; format: in vivo, Stellaria media
Procedure, shortened: as §1

[9] = system: VERPE; assay: Pre-emergence herbicidal action against VERPE; format: in vivo, Veronica persica; conditions: dosage 80 g/ha
Procedure, shortened: as §1

[10] = system: VIOTR; assay: Pre-emergence herbicidal action against VIOTR; format: in vivo, Viola tricolor
Procedure, shortened: as §1

[11] = system: DIGSA; assay: Pre-emergence herbicidal action against DIGSA; format: in vivo, Digitaria sanguinalis
Procedure, shortened: as §1

[12] = system: ABUTH; assay: Post-emergence herbicidal action against ABUTH; format: in vivo, Abutilon theophrasti; conditions: visual assessment about 3 weeks after treatment vs untreated controls
Procedure, shortened: (§2)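 Greenhouse pot plants in sandy loam were sprayed at the one-leaf stage, 2 to 3 weeks after sowing, with WP or EC formulations as aqueous suspension or emulsion (600 to 800 l/ha water, 0.2% wetting agent). About 3 weeks later, damage was scored visually against untreated controls as % action (100% = dead, 0% = like control).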

[13] = system: AMARE; assay: Post-emergence herbicidal action against AMARE; format: in vivo, Amaranthus retroflexus; conditions: 20 g/ha, visual assessment about 3 weeks after treatment, 100% = plants have died, 0% = like control plants
Procedure, shortened: as §2

[14] = system: AVEFA; assay: Post-emergence herbicidal action against AVEFA; format: in vivo, Avena fatua; conditions: 20 g/ha, visual assessment about 3 weeks after treatment, 100% = plants have died, 0% = like control plants
Procedure, shortened: as §2

[15] = system: ECHCG; assay: Post-emergence herbicidal action against ECHCG; format: in vivo, Echinochloa crus-galli
Procedure, shortened: as §2

[16] = system: MATIN; assay: Post-emergence herbicidal action against MATIN; format: in vivo, Matricaria inodora
Procedure, shortened: as §2

[17] = system: PHBPU; assay: Post-emergence herbicidal action against PHBPU; format: in vivo, Pharbitis purpurea
Procedure, shortened: as §2

[18] = system: STEME; assay: Post-emergence herbicidal action against STEME; format: in vivo, Stellaria media
Procedure, shortened: as §2

[19] = system: VERPE; assay: Post-emergence herbicidal action against VERPE; format: in vivo, Veronica persica; conditions: 20 g/ha
Procedure, shortened: as §2

[20] = system: VIOTR; assay: Post-emergence herbicidal action against VIOTR; format: in vivo, Viola tricolor; conditions: 20 g/ha
Procedure, shortened: as §2

[21] = system: ECHCG; assay: Pre-emergence herbicidal action against ECHCG; format: in vivo, Echinochloa crus-galli; conditions: 80 g/ha
Procedure, shortened: as §1

[22] = system: SETVI; assay: Post-emergence herbicidal action against SETVI; format: in vivo, Setaria viridis
Procedure, shortened: as §2

[23] = system: DIGSA; assay: Post-emergence herbicidal action against DIGSA; format: in vivo, Digitaria sanguinalis
Procedure, shortened: as §2

[24] = 20 g/ha, scored visually after 3 weeks vs untreated controls, 100% = plants have died, 0% = like control plants
[25] = 80 g/ha, scored visually after 3 weeks vs untreated controls (100% = plants have died, 0% = like control plants)

Compound	Pre-emergence action against ABUTH (herbicidal activity) [1] [%]	Pre-emergence action against ABUTH (herbicidal activity in percent) [1] [%]	Pre-emergence action against AMARE in % [3, 24] [%]	Pre-emergence action against AMARE in % [3, 25] [%]	Pre-emergence action against AVEFA in % [4] [%]	Pre-emergence action against MATIN in % ([5]; dosage 20 g/ha) [%]	Pre-emergence action against MATIN in % ([5]; dosage 80 g/ha) [%]	Pre-emergence action against POLCO in % ([6]; dosage 20 g/ha) [%]	Pre-emergence action against POLCO in % ([6]; dosage 80 g/ha) [%]	Pre-emergence action against SETVI in % [7] [%]	Pre-emergence action against STEME in % ([8]; dosage 20 g/ha) [%]	Pre-emergence action against STEME in % ([8]; dosage 80 g/ha) [%]	Pre-emergence action against VIOTR in % ([10]; dosage 80 g/ha) [%]	Pre-emergence action against DIGSA in % ([11]; dosage 20 g/ha) [%]	Pre-emergence action against DIGSA in % ([11]; dosage 80 g/ha) [%]	Post-emergence action against ABUTH in % ([12]; dosage 5 g/ha) [%]	Post-emergence action against ABUTH in % ([12]; dosage 20 g/ha) [%]	Post-emergence action at 20 g/ha against AMARE in % [13] [%]	Post-emergence action at 20 g/ha against AVEFA in % [14] [%]	Post-emergence action against ECHCG in % ([15]; dosage 20 g/ha) [%]	further results
CCn1nnnc1NC(=O)c1ccc(C(F)F)c(C(=O)NC)c1C [Example 2-44]	100	100	100	100	90	90	100	80	90	100	90	100	100	100	100	80	90	100	80	80	Pre-emergence action against ALOMY (herbicidal activity) [2]: 80%; Pre-emergence action against VERPE in % [9]: 90%; Pre-emergence action against VIOTR in % ([10]; dosage 20 g/ha): 100%; Post-emergence action against MATIN in % ([16]; dosage 5 g/ha): 80%; Post-emergence action against MATIN in % ([16]; dosage 20 g/ha): 80%; Post-emergence action against PHBPU in % ([17]; dosage 5 g/ha): 80%; Post-emergence action against PHBPU in % ([17]; dosage 20 g/ha): 80%; Post-emergence action against STEME in % ([18]; 20 g/ha): 80%; Post-emergence action against VERPE in % [19]: 80%; Post-emergence action against VIOTR in % [20]: 80%
CNC(=O)c1c(C(F)F)ccc(C(=O)Nc2nnco2)c1SC [Example 5-74]	100	80	100	100	80	80	90	80	80	90	90	100	100	90	100	90	90	100	80	80	Pre-emergence action against ECHCG in % [21]: 90%; Post-emergence action against ECHCG in % ([15]; dosage 5 g/ha): 80%; Post-emergence action against PHBPU in % ([17]; dosage 20 g/ha): 100%; Post-emergence action against SETVI in % ([22]; dosage 5 g/ha): 80%; Post-emergence action against SETVI in % ([22]; dosage 20 g/ha): 90%; Post-emergence action against STEME in % ([18]; 20 g/ha): 90%; Post-emergence action against STEME in % ([18]; dosage 5 g/ha): 80%; Post-emergence action against DIGSA in % ([23]; 5 g/ha): 90%; Post-emergence action against DIGSA ([23]; 20 g/ha): 90%
